Measurements taken from patent publication US7505101B2, “Liquid crystal display” (Fujifilm Corporation, priority 2004, dated 2009).

Assay: octanol-water partition coefficient (Log P value)
Format: physicochemical
Details: octanol-water distribution coefficient
Excerpt: In the preparation of the cellulose acylate film according to the invention, among the aforementioned compound for suppressing an alignment of cellulose acylate in the film along the in-plane direction and the direction of film thickness thereby sufficiently reducing Rth, preferred is a compound having an octanol-water distribution coefficient (log P value) within a range of from 0 to 7. […] Also, a compound having a log P value or 0 or more has a lower hydrophilicity and thus can suppress deterioration of the water resistance of the cellulose acylate film. The log P value is more preferably within a range of from 1 to 6, and particularly preferably 1.5 to 5. The octanol-water distribution coefficient (log P value) can be measured by a flask […] method described in Japan Industrial Standards (JIS) Z7260-107 (2000). The octanol-water distribution coefficient (log P value) may also be estimated, instead of an actual measurement, by a calculational chemical method or an empirical method. […]

Cc1ccc(S(=O)(=O)Nc2ccccc2)cc1 [A-19]
logP: 2.9

CCCCCCCCOc1ccc(C(=O)c2ccccc2)c(O)c1 [UV-102]
logP: 5.6
